Tested on: freely moving rats
Experiment: Electropharmacogram (EEG spectral power and physical activity) of freely moving rats after a CBD liquid formulation
Type: in vivo, rat
Protocol: FIGS. 1 to 3 show electropharmacograms from electroencephalography (EEG) of adult rats (>3 months old), wherein a dosage of 1 mg/kg (body weight) (FIG. 1), 5 mg/kg (body weight (FIGS. 2), and 15 mg/kg (body weight) (FIG. 3) cannabidiol was administered in the form of a liquid formulation.
Under general anesthesia, four depth electrodes were implanted into the prefrontal cortex, the hippocampus, the striatum, and the reticular formation of the rats. From the head of the rats, signals are wirelessly transmitted by radio to a computer. At the same time, the physical activity is measured.
The signals are subjected to a frequency analysis, for example using the fast Fourier transform (FFT), and the frequency content of a signal is determined. In the case of EEG data, the spectrum is divided into multiple regions, which historically are denoted by delta, theta, alpha and beta.
After the division into seven frequency ranges ((1) to (7), see FIGS. 1-3), the changes in the electric output after administration of a liquid formulation according to the invention comprising cannabidiol can be quantified and, taking the signals of the four brain regions into consideration, a specific change pattern, referred to as the “electropharmacogram (supra)”, is obtained (Dimpfel W., Pharmacological classification of herbal extracts by means of comparison to spectral EEG signatures induced by synthetic drugs in the freely moving rat. Journal of Ethnopharmacology 2013, 149, 583-589).
Time-dependent progression of the electric output (“spectral power”) (ordinate) in percent from the 45-minute long pre-drug base line (values) in four brain regions of freely moving rats in the presence of a vehicle (4 ml/kg). The frequency ranges are depicted as bars on the abscissa, specifically delta (1), theta (2), alpha1 (3), alpha2 (4), beta1a (5), beta1b (6) and gamma spectral power (7) from left to right, depending on the named brain region, The statistical significance is represented in stars compared to the control group (vehicle): *=p<0.05; **=p<0.01.

[1] = dosage of 1 mg/kg to 5 mg/kg, adult rats
[2] = high dosages, 5 or 15 mg/kg (body weight)

What does the source list for C=C(C)[C@@H]1CCC(C)=C[C@H]1c1c(O)cc(CCCCC)cc1O [CBD, 2-[1R-3-methyl-6-(1-methylethenyl]--cyclohexen-1-yl]-5-pentyl-1,3-benzenediol]?
duration for which the specific increase in gamma spectral power can be observed [1]: at least 4 hours; gamma spectral power in the hippocampus [1]: not at all; gamma spectral power within the striatum (dosage of 1 mg/kg to 5 mg/kg, adult rats, FIG. 1): increase; gamma spectral power (dosage of 15 mg/kg, adult rats, FIG. 3): no specific increase; EEG pattern or electropharmacogram compared with drug classes [2]: corresponds to that of certain antidepressants and analgesic drugs; activity index [2]: significant decrease; effect according to the electropharmacogram (high dosages, 5 or 15 mg/kg (body weight), FIGS. 2 and 3): sedating effect; effect according to the electropharmacogram (lowest dosage, less than 5 mg/kg, preferably 1 mg/kg (body weight)): activating and invigorating effect
